Reference: patent publication EP3892267A1, “C[…] FOR LYMPHOMA” (Université de Paris, priority 2020, dated 2021)
Structures can show the parent of a compound that is named as a salt.

Experiments:
OCI-LY19 cell line = experiment: Immunoblotting for cleaved caspase 3; type: cell-based, Human; details: OCI-LY19 (GCB); metformin 2.5mM, Kidrolase 2UI/mL, alone or combined
Procedure: (§1) The cells are washed in cold 1X PBS then lysis is carried out at 4°C (on ice) for 20 minutes, using a mix containing a High Salt buffer (0.4 M NaCl). 25 mM Hepes pH 7.7, 1.5 mM MgCI 2, 0.2 mM EDTA, 1%NP4O), protease and phosphatase inhibitors (20 mM glycerol phosphate, 0.2 mM Na3VO4, 10mM PNPP, 2 mM DTT, […] and an inhibitor cocktail from Boehringer Company). Whole cell extracts are centrifuged also at 4°C for 10 minutes at 13 000 rpm, the supernatant is transferred to an Eppendorf tube and the proteins are dosed using a protein kit assay (Bio-Rad) and stored at - 80°C. Immunoblotting was performed as previously reported (Authier H et al, 2014). Cleaved caspase 3 and β-actin antibodies are from Cell Signaling Technologies and Sigma, respectively.

MD901 cell line = experiment: Immunoblotting for cleaved caspase 3; type: cell-based, Human; details: MD901 (ABC); metformin 2.5mM, Kidrolase 2UI/mL, alone or combined
Procedure: as §1

CN(C)C(=N)N=C(N)N [metformin, Metformin hydrochloride]
activation of caspase 3 (cleaved caspase 3) (OCI-LY19 cell line): not to barely detectable | activation of caspase 3 (cleaved caspase 3) (MD901 cell line): not to barely detectable
